From US8410097B2 (priority 2005, dated 2013)
Where two headings read alike, the source gives them in different places.

How the values were obtained:
CB2 cannabinoid receptor = CB2 cannabinoid receptor (Mus musculus, UniProt P47936); test: biochemical; type: binding; conditions: Table 6, mouse spleen membranes, [3H] CP-55,940
Description: Some of the inventive analogs were tested for CB2 receptor binding affinity and for CB1 receptor affinity (to determine selectivity). […] The lower the Ki value the higher the binding affinity.
(§1) The treated membranes were subsequently used in the binding assay described below. Approximately 30 μg of membranes were incubated in silanized 96-well microtiter plate with TME containing 0.1% essentially fatty acid-free bovine serum albumin (BSA), 0.8 nM [^3H] […] Radioactivity was detected using MicroScint 20 scintillation cocktail added directly to the dried filterplates, and the filterplates were counted using a Packard Instruments Top-Count. […] Data collected from three independent experiments performed with duplicate determinations was normalized between 100% and 0% specific binding for [^3H] […] The normalized data was analyzed using a 4-parameter nonlinear logistic equation to yield IC50 values.
Silanized centrifuge tubes were used throughout to minimize receptor loss due to adsorption. The CB2 binding assay was conducted in the same manner as for the CB1 binding assay. The binding affinities (Ki) were also expressed in nanomoles (nM).

CB1 cannabinoid receptor = molecular target: T1, CB1 cannabinoid receptor (Rattus norvegicus, UniProt P20272); test: biochemical; type: binding; conditions: Table 6, rat forebrain membranes, 0.8 nM [3H] CP-55,940
T1 construct: membranes were prepared from rat forebrain membranes; from tissue; host or cells: rat forebrain membranes
T1 sequence (P20272 whole entry): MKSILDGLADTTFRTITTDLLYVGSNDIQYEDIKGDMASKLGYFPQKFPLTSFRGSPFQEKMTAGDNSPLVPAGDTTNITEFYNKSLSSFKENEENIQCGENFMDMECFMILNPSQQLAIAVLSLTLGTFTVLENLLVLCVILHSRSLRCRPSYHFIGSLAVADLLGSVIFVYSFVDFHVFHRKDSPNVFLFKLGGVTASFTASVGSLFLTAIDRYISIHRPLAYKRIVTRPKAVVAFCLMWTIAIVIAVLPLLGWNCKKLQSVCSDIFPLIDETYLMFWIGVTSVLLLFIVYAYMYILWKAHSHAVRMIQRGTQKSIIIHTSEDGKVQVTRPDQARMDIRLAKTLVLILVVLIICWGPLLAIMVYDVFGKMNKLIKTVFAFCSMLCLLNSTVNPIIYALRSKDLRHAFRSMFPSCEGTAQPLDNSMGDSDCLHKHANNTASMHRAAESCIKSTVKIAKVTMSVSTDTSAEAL
Description: Some of the inventive analogs were tested for CB2 receptor binding affinity and for CB1 receptor affinity (to determine selectivity). […] The lower the Ki value the higher the binding affinity. […]
Membranes, previously frozen at −80° C., were thawed on ice. To the stirred suspension was added three volumes of TME (25 mM Tris-HCl buffer, 5 mM MgCl2 and 1 mM EDTA) at a pH 7.4. The suspension was incubated at 4° C. for 30 min. At the end of the incubation, the membranes were pelleted and washed three times with TME.
as §1

Chain of CB2 cannabinoid receptor (P47936 whole entry): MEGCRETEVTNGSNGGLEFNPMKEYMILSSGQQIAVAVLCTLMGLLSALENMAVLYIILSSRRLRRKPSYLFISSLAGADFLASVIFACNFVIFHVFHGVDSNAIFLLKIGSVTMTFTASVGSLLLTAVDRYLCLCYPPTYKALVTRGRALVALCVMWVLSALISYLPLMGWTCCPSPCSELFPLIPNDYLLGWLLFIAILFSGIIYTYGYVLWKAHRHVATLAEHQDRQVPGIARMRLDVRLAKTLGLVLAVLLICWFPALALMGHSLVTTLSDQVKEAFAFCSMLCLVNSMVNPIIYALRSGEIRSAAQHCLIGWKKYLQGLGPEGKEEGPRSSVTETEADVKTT

SMILES | Ki (CB2 cannabinoid receptor; read-out: CB2 Ki) [nM] | Ki (CB1 cannabinoid receptor; CB1 Ki) [nM] | Ki (CB2 cannabinoid receptor; CB2 Ki) [nM] | Ki (CB1 cannabinoid receptor; read-out: CB1 Ki) [nM]
Cc1cc(Br)ccc1-n1c(-c2ccc(Cl)cc2Cl)nc(C(=O)NN2CCCCC2)c1C [Compound 1-1] | 808 | 29.8 | – | –
Cc1c(C(=O)NN2CCCCC2)nc(-c2ccc(Cl)cc2Cl)n1-c1ccc(Br)cc1 [Compound 1-2] | – | 11.5 | 462 | –
Cc1cc(Br)ccc1-n1c(-c2ccc(Cl)cc2Cl)nc(C(=O)NN2CCCCC2)c1CO [Compound 1-3] | 803 | 54.7 | – | –
O=C(NN1CCCCC1)c1nc(-c2ccc(Cl)cc2Cl)n(-c2ccc(Br)cc2)c1CO [Compound 1-4] | – | 10.8 | 319 | –
CN(C(=O)c1nc(-c2ccc(Cl)cc2Cl)n(-c2ccc(Br)cc2)c1CO)C1CCCCC1 [Compound 1-5] | 3780 | 28.8 | – | –
Cc1c(C(=O)NN2CCCCC2)nc(-c2ccc(Cl)cc2Cl)n1-c1ccc(I)cc1 [Compound 1-6] | 4310 | 2.7 | – | –
O=C(NN1CCCCC1)c1nc(-c2ccc(Cl)cc2Cl)n(-c2ccc(I)cc2)c1CO [Compound 1-7] | 1650 | 1.5 | – | –
Cc1c(C(=O)NN2CCCCC2)nc(-c2ccc(Cl)cc2Cl)n1-c1ccc(C#N)cc1 [Compound 1-8] | 7220 | 57 | – | –
N#Cc1ccc(-n2c(-c3ccc(Cl)cc3Cl)nc(C(=O)NN3CCCCC3)c2CO)cc1 [Compound 1-9] | 5460 | 51 | – | –
O=C(NC1CCCCC1)c1nc(-c2ccc(Cl)cc2Cl)n(-c2ccc(Br)cc2)c1CO [Compound 1-10] | 3030 | 4.6 | – | –
CN(C(=O)c1nc(-c2ccc(Cl)cc2Cl)n(-c2ccc(I)cc2)c1CO)C1CCCCC1 [Compound 1-11] | 1150 | 6.4 | – | –
O=C(NC1CCCCC1)c1nc(-c2ccc(Cl)cc2Cl)n(-c2ccc(I)cc2)c1CO [Compound 1-12] | 22400 | 19 | – | –
Cc1c(C(=O)N2CCCCC2)nc(-c2ccc(Cl)cc2Cl)n1-c1ccc(Br)cc1 [Compound 1-13] | 2450 | 22 | – | –
Cc1c(C(=O)NN2CCCCC2)nc(-c2ccc(Cl)cc2Cl)n1-c1ccc(-c2cccnc2)cc1 [Compound 1-14] | 3330 | 39.8 | – | –
O=C(NN1CCCCC1)c1nc(-c2ccc(Cl)cc2Cl)n(-c2ccc(-c3cccnc3)cc2)c1CO [Compound 1-15] | 2780 | 23 | – | –
Cc1c(C(=O)NN2CCCCC2)nc(-c2ccc(Cl)cc2Cl)n1-c1ccc(-c2nnn[nH]2)cc1 [Compound 1-16] | 10700 | – | – | 404
Cc1c(C(=O)NN2CCCCC2)nc(-c2ccc(Cl)cc2Cl)n1-c1ccc(-c2nnnn2C)cc1 [Compound 1-17] | 24500 | – | – | 2290
Cc1c(C(=O)NN2CCCCC2)nc(-c2ccc(Cl)cc2Cl)n1-c1ccc(-c2nnn(C)n2)cc1 [Compound 1-18] | 5080 | 6.5 | – | –
O=C(NN1CCCCC1)c1nc(-c2ccc(Cl)cc2Cl)n(-c2ccc(-c3nnn[nH]3)cc2)c1CO [Compound 1-19] | 22300 | – | – | 5760
Cn1nnnc1-c1ccc(-n2c(-c3ccc(Cl)cc3Cl)nc(C(=O)NN3CCCCC3)c2CO)cc1 [Compound 1-20] | 12300 | – | – | 400
Cn1nnc(-c2ccc(-n3c(-c4ccc(Cl)cc4Cl)nc(C(=O)NN4CCCCC4)c3CO)cc2)n1 [Compound 1-21] | 539 | 10.5 | – | –
Cc1c(C(=O)N(C)C2CCCCC2)nc(-c2ccc(Cl)cc2Cl)n1-c1ccc(-c2nnn[nH]2)cc1 [Compound 1-22] | 26300 | – | – | 359
